Consider 12 molecules from US20230192617A1, “AZABICYCLIC(THIO)AMIDES AS FUNGICIDAL COMPOUNDS” (Bayer CropScience Aktiengesellschaft, priority 2020, published 2023).

One series relates to Alternaria alternata. The series can be described thus: Alternaria alternata in vitro cell test. Type of series: cell-based. Conditions: 120 h, 20 ppm of active ingredient, liquid culture, 5 days incubation, spectrometric measurement of mycelium growth, read-out: efficacy (inhibition of fungal growth). A digest of the protocol:
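Spectrometric readout of mycelial growth after 5-day incubation gauged compound effects on spore germination and growth of A. alternata in liquid medium. Compounds were delivered in DMSO at ≤1% final. Absorbance was compared with untreated controls to give inhibition.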

For series [1], the system named is Pyrenophora teres. The series can be described thus: In vivo preventive test on Pyrenophora teres (net blotch on barley). Conditions: 240 h, 500 ppm of active ingredient, preventive spray on barley, evaluated 10 days after inoculation, read-out: efficacy. The method, boiled down:
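Net blotch spores were sprayed onto barley leaves one day after foliar treatment with water-diluted DMSO/acetone/Tween 80 formulations (solvent-only controls). Plants were kept at 20° C: first 48 hours at 100% relative humidity, then 8 days at 70-80%.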

A further series deals with Septoria tritici. The series can be described thus: B-9. Septoria tritici in vitro cell test. It is filed as cell-based. Conditions: Zymoseptoria tritici, 168 h; 20 ppm of active ingredient; 7 days incubation; liquid culture, absorbance; read-out: efficacy (inhibition of fungal growth). On the procedure: B-9. Septoria tritici In Vitro Cell Test [table] Fungicides were solubilized in DMSO and the solution used to prepare the required range of concentrations. The final concentration of DMSO used in the assay was ≤1%. A spore suspension of S. tritici was prepared and diluted to the desired spore density. Fungicides were evaluated for their ability to inhibit spore germination and mycelium growth in liquid culture assay. The compounds were added in the desired concentration to the culture medium with spores. After 7 days incubation, fungi-toxicity of compounds was determined by spectrometric measurement of mycelium growth. Inhibition of fungal growth was determined by comparing the absorbance values in wells containing the fungicides with the absorbance in control wells without fungicides.

Series [2] has as its system Colletotrichum lindemuthianum. In words: In vivo preventive test on Colletotrichum lindemuthianum (leaf spot on bean). Conditions: 168 h, 500 ppm of active ingredient, preventive spray on bean, evaluated 7 days after inoculation, read-out: efficacy. The method, boiled down:
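Young bean plants sprayed with compound in DMSO/acetone/Tween 80 diluted in water; solvent-only controls. Inoculated 24 h later with C. lindemuthianum spore suspension, then kept 24 h at 20 °C/100% RH and 6 days at 20 °C/90% RH.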

The subject of series [3] is Colletotrichum lindemuthianum. In words: B-8. Colletotrichum lindemuthianum in vitro cell test. It is filed as cell-based. To be noted: 144 h, 20 ppm of active ingredient, 6 days incubation, liquid culture, absorbance, read-out: efficacy (inhibition of fungal growth). The method, boiled down: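 Liquid-culture germination/growth test: compounds in ≤1% final DMSO were added to spore-containing medium. Fungal growth was quantified spectrophotometrically after 6 days of incubation and expressed as inhibition versus untreated controls.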

For a further series, the system named is Sphaerotheca fuliginea. The series can be described thus: In vivo preventive test on Sphaerotheca fuliginea (powdery mildew on cucurbits). To be noted: Podosphaera fuliginea, 192 h; 500 ppm of active ingredient; preventive spray on gherkin; evaluated 8 days after inoculation; read-out: efficacy. A digest of the protocol:
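This is a preventive spray test on gherkin seedlings, with compound formulated in DMSO/acetone/Tween 80 in water and solvent-only controls. Spore inoculation followed one day after treatment. Incubation lasted 8 days at 20 °C, 70–80% RH.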

The nature of series [4]: Measurement of Log P values by HPLC on reversed phase columns (EEC directive 79/831 Annex V.A8). Type of series: physicochemical. To be noted: reversed phase HPLC column, method [a]: LC-UV, acidic range, 0.1% formic acid in water and acetonitrile as eluent. A digest of the protocol: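 Log P derived from retention on reversed-phase columns (EEC directive 79/831 Annex V.A8), LC-UV, acetonitrile gradient 10% to 95% against water containing 0.1% formic acid, 0.001 M ammonium acetate, or 0.1% phosphoric acid; several values per method separated by "+".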

The subject of series [5] is Botrytis cinerea. The series can be described thus: B-11. Botrytis cinerea in vitro cell test. It is filed as cell-based. Conditions: 144 h, 20 ppm of active ingredient, 6 days incubation, liquid culture, absorbance, read-out: efficacy (inhibition of fungal growth). A digest of the protocol:
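B. cinerea spores were grown in liquid culture with compound (DMSO ≤1% final). Mycelium growth was measured spectrometrically after 6 days, with inhibition taken as absorbance relative to untreated control wells.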

The subject of series [6] is Pyrenophora teres. In words: B-10. Pyrenophora teres in vitro cell test. It is filed as cell-based. To be noted: 144 h, 20 ppm of active ingredient, 6 days incubation, liquid culture, absorbance, read-out: efficacy (inhibition of fungal growth). A digest of the protocol:
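Liquid-culture assay on a P. teres spore suspension with compounds added to the medium from DMSO solutions, final DMSO ≤1%. Mycelium growth read spectrometrically after 6 days. Inhibition calculated from absorbance against untreated control wells.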

Series [7] relates to Botrytis cinerea. In words: In vivo preventive test on Botrytis cinerea (grey mould). To be noted: 500 ppm of active ingredient, preventive spray on gherkin or cabbage, evaluated 4 to 5 days after inoculation, read-out: efficacy. The method, boiled down:
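Preventive spray on cabbage or gherkin seedlings, with compound formulated in DMSO/acetone/Tween 80 and water-diluted, preceded spore inoculation by 24 hours. Cabbage was held 4 to 5 days at 20° C., 100% relative humidity; gherkin 4 to 5 days at 17° C., 90% relative humidity.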

The test system of a further series is Alternaria brassicae. In words: In vivo preventive test on Alternaria brassicae (leaf spot on radish or cabbage). To be noted: 500 ppm of active ingredient, preventive spray on radish or cabbage, evaluated 3 to 4 days after inoculation, read-out: efficacy. A digest of the protocol: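 Protective spray on young radish or cabbage: actives in water diluted from DMSO/acetone/Tween 80, with solvent-only controls. Leaves were challenged after 24 h with a spore suspension, and plants were held at 100% RH, 20 °C for 3 to 4 days.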

Consider `O=C(NCC(F)(F)c1ccc(Br)cc1Cl)c1c(Oc2cccc(C(F)(F)F)c2)nnc2c1CCCC2` [I-207], for which the inhibition at 20 ppm (in the series on Alternaria alternata; in the series with Septoria tritici; in series [3]; in the series on Botrytis cinerea [5]; in the series with Pyrenophora teres [6]) was 90 to 100% each time. Besides, the pest or weed control at 500 ppm (with Pyrenophora teres [1]; in series [2]; in the series with Sphaerotheca fuliginea; with Botrytis cinerea [7]) was 90 to 100% each time. The molecule further had a chromatographic logP in series [4] of 4.28.

As to `O=C(NCC(F)(F)c1ccc(Br)cc1Cl)c1c(Oc2cccc(C(F)F)c2)nnc2c1CCCC2` [I-208], the inhibition at 20 ppm (in the series with Alternaria alternata; with Septoria tritici; in [3]; in the series on Botrytis cinerea [5]; with Pyrenophora teres [6]) was 90 to 100% each time. The pest or weed control at 500 ppm (with Pyrenophora teres [1]; in series [2]; with Sphaerotheca fuliginea; in the series with Botrytis cinerea [7]) was 90 to 100% in each case. In series [4], this molecule yielded a chromatographic logP of 3.84.

Turning to `COc1cc([C@@H](F)CNC(=O)c2c(Oc3cccc(C(F)(F)F)c3)nnc3ccccc23)ccc1Cl` (racemic) [I-176], the inhibition at 20 ppm lay in the range of 90 to 100% with Alternaria alternata, 80 to 89% in the series with Septoria tritici, 90 to 100% in the series on Botrytis cinerea [5] and 90 to 100% in the series on Pyrenophora teres [6]. For the same molecule, the pest or weed control at 500 ppm with Alternaria brassicae lay in the range of 90 to 100%; in the series on Pyrenophora teres [1] it was 80 to 89%; in series [2] it was 70 to 79%. The chromatographic logP in series [4] is 3.92.

`Cc1cc(Cl)ccc1C(F)(F)CNC(=O)c1c(Oc2cccc(C3CC3)c2F)nnc2c1CCCC2` [I-147]: the inhibition at 20 ppm (with Alternaria alternata; in the series on Septoria tritici; in series [3]; in the series on Pyrenophora teres [6]) was 90 to 100% each time. The pest or weed control at 500 ppm (with Alternaria brassicae; in the series on Pyrenophora teres [1]; in [2]; in the series with Sphaerotheca fuliginea; in the series on Botrytis cinerea [7]) was 90 to 100% throughout. The molecule also displayed a chromatographic logP in series [4] of 4.34.

In the case of `O=C(NCC(F)(F)c1ccc(Cl)cc1Cl)c1c(Oc2cccc(Cl)c2)nnc2c1CCCC2` [I-192], the inhibition at 20 ppm (in the series with Alternaria alternata; in the series with Septoria tritici; in series [3]; in the series with Botrytis cinerea [5]; with Pyrenophora teres [6]) was 90 to 100% each time. In addition, the pest or weed control at 500 ppm (in the series with Pyrenophora teres [1]; in [2]; in the series on Sphaerotheca fuliginea; with Botrytis cinerea [7]) was 90 to 100% throughout. Besides, in [4], the chromatographic logP was determined as 4.

Take `O=C(NCC(F)(F)c1ccc(Cl)cc1Cl)c1c(Oc2cccc(Cl)c2F)nnc2c1CCCC2` [I-194]: the inhibition at 20 ppm (in the series with Alternaria alternata; with Septoria tritici; in series [3]; in the series with Botrytis cinerea [5]; in the series on Pyrenophora teres [6]) was 90 to 100% each time. The pest or weed control at 500 ppm (in the series with Pyrenophora teres [1]; in [2]; in the series with Sphaerotheca fuliginea; with Botrytis cinerea [7]) was 90 to 100% throughout. In series [4], the chromatographic logP was determined as 4.05.

As for `O=C(NCC(F)(F)c1ccc(Br)cc1Cl)c1c(Oc2cccc(Cl)c2F)nnc2c1CCCC2` [I-210], the inhibition at 20 ppm (in the series on Alternaria alternata; in the series with Septoria tritici; in [3]; in the series with Botrytis cinerea [5]; with Pyrenophora teres [6]) was 90 to 100% each time. The pest or weed control at 500 ppm (in the series on Pyrenophora teres [1]; in series [2]; in the series on Sphaerotheca fuliginea; in the series on Botrytis cinerea [7]) was 90 to 100% throughout. The chromatographic logP in [4] stood at 4.4.

Regarding `O=C(NCC(F)(F)c1ccc(Cl)cc1Cl)c1c(Oc2cccc(C(F)(F)F)c2)nnc2c1CCC2` [I-198], the inhibition at 20 ppm (in the series on Alternaria alternata; in the series with Septoria tritici; in series [3]; in the series with Botrytis cinerea [5]; with Pyrenophora teres [6]) was 90 to 100% in each case. For the same molecule, the pest or weed control at 500 ppm in the series with Pyrenophora teres [1] lay in the range of 80 to 89%; in series [2], 90 to 100%; with Sphaerotheca fuliginea, 90 to 100%; in the series with Botrytis cinerea [7] it was 90 to 100%. In [4], this molecule registered a chromatographic logP of 4.05.

`O=C(NCC(F)(F)c1ccc(Cl)cc1Cl)c1c(Oc2cccc(C3CC3)c2F)nnc2c1CCCC2` [I-196]: the inhibition at 20 ppm (in the series with Alternaria alternata; in the series on Septoria tritici; in series [3]; in the series on Botrytis cinerea [5]; with Pyrenophora teres [6]) was 90 to 100% in each case. Also, the pest or weed control at 500 ppm (with Pyrenophora teres [1]; in [2]; in the series with Sphaerotheca fuliginea; in the series with Botrytis cinerea [7]) was 90 to 100% throughout. This molecule registered a chromatographic logP in series [4] of 4.28.

`Cc1ccc(C(F)(F)CNC(=O)c2c(Oc3cccc(C(F)(F)F)c3)nnc3c2CCCC3)c(C)c1` [I-115]: the inhibition at 20 ppm (in the series with Alternaria alternata; in the series on Septoria tritici; in [3]; with Pyrenophora teres [6]) was 90 to 100% throughout. Further, the pest or weed control at 500 ppm (in the series on Alternaria brassicae; in the series with Pyrenophora teres [1]; in series [2]; with Sphaerotheca fuliginea; in the series with Botrytis cinerea [7]) was 90 to 100% throughout. For the same molecule, the chromatographic logP in series [4] was 4.05.

Take `O=C(NCC(F)(F)c1ccc(Cl)cc1Cl)c1c(Oc2cccc(Cl)c2F)nnc2c1CCC2` [I-201]: the inhibition at 20 ppm (with Alternaria alternata; in the series on Septoria tritici; in [3]; in the series with Botrytis cinerea [5]; in the series on Pyrenophora teres [6]) was 90 to 100% throughout. For the same molecule, the pest or weed control at 500 ppm (in the series with Pyrenophora teres [1]; in series [2]; in the series with Sphaerotheca fuliginea; in the series with Botrytis cinerea [7]) was 90 to 100% each time. This molecule displayed a chromatographic logP in series [4] of 3.94.

Consider `Cc1ccc(C(F)(F)CNC(=O)c2c(Oc3cccc(C(F)(F)F)c3)nnc3cc(C4CC4)ccc23)c(C)c1` [I-242], for which the inhibition at 20 ppm in the series with Alternaria alternata lay in the range of 90 to 100%; with Septoria tritici it was 80 to 89%; in series [3], 90 to 100%; in the series on Botrytis cinerea [5], 90 to 100%; in the series on Pyrenophora teres [6] it was 90 to 100%. The pest or weed control at 500 ppm lay within 90 to 100% with Alternaria brassicae, 70 to 79% in the series with Pyrenophora teres [1], 80 to 89% in the series with Sphaerotheca fuliginea and 90 to 100% in the series with Botrytis cinerea [7]. The same molecule yielded a chromatographic logP in series [4] of 5.12.

The term inhibition denotes the percentage by which the read-out fell short of the control. Usually chromatographic logP stands for a lipophilicity value derived from retention on a column. The low end stands for lower lipophilicity, the high end for higher lipophilicity.
